Test results as given in patent US10793527B2, “Adenosine monophosphate-activated protein kinase agonist” (NATIONAL YANG-MING UNIVERSITY, priority 2016, dated 2020).

Assays:
mature adipocytes = assay: Cell growth of adipocytes (adipoRed staining, cell imaging); type: cell-based, human
Experimental: (§1) According to the standard procedure of adipocyte differentiation, human pre-adipocytes are treated with adipogenesis reagent (Gibco StemPro) for 14 days to induce differentiation into mature adipocytes. Next, mature adipocytes are treated with different concentrations of compound SCT-1015 (100 μM, 25 μM, 12.5 μM, 5 μM, and 2.5 μM), solvent only (Mock), or non-treated and cultivated for 48 hours. Then, the adipocytes are stained with adipoRed (Lonza inc.), and the cell number is evaluated by fluorescence signals measured at excited and emission wavelength are 485 nm and 572 nm, respectively. In addition, after the cells were treated with 2.5 μM. of the compound SCT-1015, the cell morphology was also observed through cell imaging.

AMPK T172 = assay: Detection of AMPK phosphorylation by ELISA assay in PLC5 cells; type: cell-based; details: PLC5 cultured with 10 μM compound for 24 hours, compared to control group
Experimental: In this analysis, the commercial kit AMPK […] Phospho-ELISA Kit (KHO0651) produced by ThermoFisher Science is utilized. The hepatoma cell PLC5 is cultured with 10 μM of the compound for 24 hours, and the analysis is performed according to the manual, and the absorbance was detected at a wavelength of 450 nm.

[1] = target: recombinant protein human AMPK (α1, β1, γ1) (Homo sapiens, UniProt Q13131); assay: AMPK enzyme activity assay (SAMS peptide), recombinant protein; type: biochemical; details: 20-2,000 nM compound; compared with the group without compound addition (FIG. 1B)
Experimental: (§2) The protein extract of liver cancer cell PLC5 and the anti-AMPKα1 antibody were incubated in an immunoprecipitation buffer (G-Biosciences) overnight. Protein A/G Magnetic Beads (PureProteome™) are added to each sample respectively and incubated at 4° C. for 4 hours. In the case of the recombinant protein AMPK, 12.5 ng of the recombinant protein human AMPK (α1, β1, γ1) is incubated with various doses of the compound, and then AMPK activities are detected based on the manual of the SAMS peptide assay (Cyclex).
(§3) It is shown by FIGS. 1A and 1B that the SCT-1015 compound can increase the activity of AMPK in liver cancer cells.

undifferentiated cells = assay: Morphology of undifferentiated cells in the adipocyte culture; type: cell-based; details: 2.5 μM (FIG. 5B)
Experimental: as §1

HIF1 and PDHK1 = assay: Immuno-blot of downstream signaling molecules in liver cancer cell lines; type: cell-based; details: PLC/PRF/5, SK-hep1 and Huh-7 (FIG. 2D)
Experimental: (§4) The liver cancer cell PCL5 and the triple negative breast cancer cell (TNBC) MBA-MB-231 and MDA-MB-453 are cultured with the compound SCT-1015, respectively. The cells are collected, wash, and lysed by RIPA buffer to obtain a protein extract. The protein concentration was measured by Bio-Rad Protein Assay dye reagent (Bio-Rad). The protein samples are diluted with 2 times SDS-loading buffer (100 mM Tris HCl, pH 6.8, 200 mM β-mercaptoethanol, 4% SDS, 0.02% bromophenol blue, and 20% glycerol) to adjust volume, and electrophoresis is carried out using 10% SDS polyacrylamide gels and followed by transferring to PVDF membrane. The primary antibody is added to detect the target protein on the membrane, and then the secondary antibody with horseradish peroxidase is added, followed by addition of substrate (enhanced SuperSignal West Pico Cheminluminescent Substrate, Pierce) to obtain the signal of the specific protein. and the protein content is determined by β-actin. The β-actin is used as an internal control for protein amount.

HCC1806/luc2 cells = assay: In situ triple negative breast cancer mouse model (HCC1806/luc2-bearing orthotopic mice), IVIS; type: in vivo; details: 20 mg/kg, fed daily for 14 days (FIG. 4)
Experimental: An in situ triple negative breast cancer mouse model (HCC1806/luc2-bearing orthotopic mice) is established with HCC1806 cells carrying the luciferase (luc2) gene. The experimental mice are divided into two groups, namely (1) control group: solvent; (2) experimental group: compound SCT-1015 (20 mg/kg), and the mice are fed daily for 14 days. On day 0 and day 14, the substrate of luciferase is injected into the peritoneal cavity of mice, and the luminescence from HCC1806/luc2 cells is detected by in vivo imaging system (IVIS) to monitor cell growth.
The results support that the compound of the present invention can activate AMPK to inhibit the growth of triple-negative breast cancer cells.

[2] = target: T1, AMPKα1 immunoprecipitated protein extract (Homo sapiens, UniProt Q13131); assay: AMPK enzyme activity assay (SAMS peptide), AMPKα1 immunoprecipitated from PLC5 protein extract; type: biochemical; details: 20-20,000 nM compound; compared to the group without compound addition (FIG. 1A)
T1 construct: AMPKα1 immunoprecipitated protein extract; endogenous in cells; host or cells: PLC5 liver cancer cells (immunoprecipitate on Protein A/G magnetic beads)
Experimental: as §2, §3

PLC/PRF/5 (PLC5) cells = assay: Cell viability of liver cancer cells (Prestoblue), PLC5; type: cell-based
Experimental: (§5) Hepatoma cell Huh-7 was obtained from Health Science Research Resources Bank (HSRRB, Osaka. Japan; JCRB0403); Hepatoma cell PLC/PRF/5 (PLC5), Sk-Hep-1 and HCC1806 were obtained from the American Type Culture Collection (ATCC, Manassas, Va.). All cell lines are cultured immediately and frozen, so the frozen cells can be thawed every 3 months to allow experiments are conducted with the same batch of cells.
(§6) Analysis is performed using a commercial kit Prestoblue assay produced by Thermo Fisher Scientific. Three liver cancer cell lines PLC/PRF/5, SK-hep1, and Huh-7 are cultured with compound SCT-1015 for 48 hours and 72 hours, respectively. […] The results support that the compound of the present invention can activate AMPK to inhibit the proliferation of liver cancer cells.

Huh-7 cells = assay: Cell viability of liver cancer cells (Prestoblue), Huh-7; type: cell-based; details: 5-20 μM, 48 hours and 72 hours, compared with control (DMSO) (FIG. 3)
Experimental: as §5, §6

[3] = Treatment of diet-induced obesity (DIO) mice, body weight; type: in vivo; details: compared to the control group of mice (FIG. 6)
Description: The male mice C57BL/6 were purchased from the National Laboratory Animal Center (NLAC, Taipei, Taiwan) and fed high-fat-die for 4 weeks to establish the diet-induced obesity (DIO) mouse model for subsequent experiments

SK-hep1 cells = assay: Cell viability of liver cancer cells (Prestoblue), SK-hep1; type: cell-based; details: 5-20 μM, 48 hours and 72 hours, compared with control (DMSO) (FIG. 3)
Experimental: as §5, §6

[4] = test system: phosphorylated AMPKα (p-AMPKα); assay: Detection of AMPK phosphorylation by immuno-blot assay; type: cell-based; details: PLC5, MDA-MB-231 and MDA-MB-453 cells; compared with the non-treated group (FIGS. 2A-2C)
Experimental: as §4

Sequence of recombinant protein human AMPK (α1, β1, γ1) (Q13131 whole entry): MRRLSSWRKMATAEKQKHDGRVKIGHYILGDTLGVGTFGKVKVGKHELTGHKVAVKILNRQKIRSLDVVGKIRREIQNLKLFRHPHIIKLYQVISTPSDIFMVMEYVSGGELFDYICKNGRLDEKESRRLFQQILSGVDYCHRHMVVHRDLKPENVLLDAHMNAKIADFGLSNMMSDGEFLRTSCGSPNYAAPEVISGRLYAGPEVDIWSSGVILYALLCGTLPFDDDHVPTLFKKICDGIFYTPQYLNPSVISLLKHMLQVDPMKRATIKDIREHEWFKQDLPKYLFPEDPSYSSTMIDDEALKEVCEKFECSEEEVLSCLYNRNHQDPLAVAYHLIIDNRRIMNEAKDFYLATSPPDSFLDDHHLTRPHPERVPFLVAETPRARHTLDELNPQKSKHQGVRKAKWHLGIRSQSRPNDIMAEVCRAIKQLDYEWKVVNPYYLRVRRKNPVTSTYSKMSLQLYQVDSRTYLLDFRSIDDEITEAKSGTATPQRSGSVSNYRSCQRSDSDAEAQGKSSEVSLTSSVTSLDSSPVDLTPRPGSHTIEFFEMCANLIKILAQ
Sequence of recombinant protein human AMPK (α1, β1, γ1) (Q9Y478 whole entry partner): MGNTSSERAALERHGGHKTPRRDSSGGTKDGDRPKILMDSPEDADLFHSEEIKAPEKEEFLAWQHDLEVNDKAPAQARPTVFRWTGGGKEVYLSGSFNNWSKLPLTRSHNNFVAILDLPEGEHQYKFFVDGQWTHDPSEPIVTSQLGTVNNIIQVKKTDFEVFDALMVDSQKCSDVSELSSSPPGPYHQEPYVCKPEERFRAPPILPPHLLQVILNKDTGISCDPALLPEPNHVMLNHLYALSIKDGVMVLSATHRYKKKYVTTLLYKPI
Sequence of recombinant protein human AMPK (α1, β1, γ1) (P54619 whole entry partner): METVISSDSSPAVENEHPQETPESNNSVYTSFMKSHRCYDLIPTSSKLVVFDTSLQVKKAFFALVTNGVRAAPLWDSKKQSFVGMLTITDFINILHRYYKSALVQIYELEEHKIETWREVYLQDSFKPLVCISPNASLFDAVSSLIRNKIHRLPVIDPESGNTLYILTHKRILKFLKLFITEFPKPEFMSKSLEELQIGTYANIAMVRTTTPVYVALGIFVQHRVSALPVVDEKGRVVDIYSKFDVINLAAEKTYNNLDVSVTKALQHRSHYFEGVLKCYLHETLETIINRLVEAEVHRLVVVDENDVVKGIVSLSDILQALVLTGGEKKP
T1 sequence (Q13131 whole entry): as the sequence (Q13131 whole entry) above
T1 sequence (Q9Y478 2-270 partner limits assumed): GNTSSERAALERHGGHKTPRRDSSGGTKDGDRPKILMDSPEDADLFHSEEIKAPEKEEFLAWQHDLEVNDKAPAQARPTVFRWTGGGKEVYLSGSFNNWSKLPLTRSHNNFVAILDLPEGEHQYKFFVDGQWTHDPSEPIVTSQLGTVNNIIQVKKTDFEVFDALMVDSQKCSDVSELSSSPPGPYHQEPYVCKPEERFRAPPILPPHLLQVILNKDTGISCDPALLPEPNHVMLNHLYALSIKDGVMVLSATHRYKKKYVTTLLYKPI
T1 sequence (P54619 whole entry partner): as the sequence (P54619 whole entry partner) above

In the case of `O=C(Nc1cccc(Nc2nccc(-c3ccc[nH]3)n2)c1)Nc1ccc(Cl)c(C(F)(F)F)c1` [SCT-1015, 1-(3-((4-(1H-pyrrol-2-yl)pyrimidin-2-yl)amino)phenyl)-3-(4-chloro-3-(trifluoromethyl)phenyl)urea], the “cell morphology of mature adipocytes” value (mature adipocytes; 2.5 μM (FIG. 5B)) is reported as “shrinkage and death”, the “number of the mature adipocytes” value (mature adipocytes; 2.5-100 μM, 48 hours, compared to control (Mock), dose-dependent (FIG. 5A)) is reported as “significantly decreased” and the “AMPK T172 activity” value (AMPK T172) is reported as 1.8 fold. The “activity of the recombinant protein AMPKα1/β1/γ1” value [1] was “significant increase”, the “cell morphology of undifferentiated cells” value (undifferentiated cells) was “maintain a healthy cell morphology” and the “regulation of downstream signaling molecules HIF1 and PDHK1” value (HIF1 and PDHK1) was “regulates the downstream signaling molecules HIF1 and PDHK1”. The “number of HCC1806/luc2 cell on day 14 compared to control group” value (HCC1806/luc2 cells) was “significantly less”, the “number of HCC1806/luc2 cell on day 14 compared to day 0” value (HCC1806/luc2 cells) was “does not show noteworthy increase” and the AMPK activity [2] was “significant increase”. For the same compound, the IC50 (PLC/PRF/5 (PLC5) cells; PLC5 cells, 48 hr) was 12.1 µM, the cell proliferation (PLC/PRF/5 (PLC5) cells; PLC/PRF/5, 5-20 μM, 48 hours and 72 hours, compared with control (DMSO) (FIG. 3)) was “inhibit the cell proliferation significantly” and the cell proliferation (Huh-7 cells) was “inhibit the cell proliferation significantly”. The body weight lost [3] was 5%, the cell proliferation (SK-hep1 cells) was “inhibit the cell proliferation significantly” and the “expression of phosphorylated AMPKα (p-AMPKα)” value [4] was “significantly increased”.
